Measurements as given in patent US8192962B2, “Processes for detecting toxic substances” (Daikin Industries, Ltd., priority 2001, dated 2012).

Tested on: Mitochondria-located protein genes
Assay: DNA chip mRNA expression in yeast, mitochondria-located protein genes (Table 2)
Assay type: cell-based, Saccharomyces cerevisiae S288C
Conditions: cells incubated two hours with the chemical substance
Procedure, shortened: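 Value is the scanned fluorescence intensity ratio of exposed versus chemical-free cells. Log-phase S288C yeast in YPD at 25° C. received one toxic substance for two hours, dosed to slow growth without killing; Cy3/Cy5-labeled cDNA from oligo-dT-purified mRNA was hybridized to a whole-genome chip at 65° C.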

Structure (SMILES): CCCCC[C@H](O)CC(=O)CCc1ccc(O)c(OC)c1 [(13), gingerol]
- The level of expressed mRNA in the presence of chemical substance/The level of expressed mRNA in the absence of chemical substance (yeast gene YAL039C): 1.6
- The level of expressed mRNA in the presence of chemical substance/The level of expressed mRNA in the absence of chemical substance (yeast gene YAL044C): 1.1
- The level of expressed mRNA in the presence of chemical substance/The level of expressed mRNA in the absence of chemical substance (yeast gene YBR291C): 1.0
- The level of expressed mRNA in the presence of chemical substance/The level of expressed mRNA in the absence of chemical substance (yeast gene YCL009C): 1.6
- The level of expressed mRNA in the presence of chemical substance/The level of expressed mRNA in the absence of chemical substance (yeast gene YDL067C): 0.6
- The level of expressed mRNA in the presence of chemical substance/The level of expressed mRNA in the absence of chemical substance (yeast gene YDR268W): 1.0
- The level of expressed mRNA in the presence of chemical substance/The level of expressed mRNA in the absence of chemical substance (yeast gene YDR377W): 0.7
- The level of expressed mRNA in the presence of chemical substance/The level of expressed mRNA in the absence of chemical substance (yeast gene YDR529C): 0.7
- The level of expressed mRNA in the presence of chemical substance/The level of expressed mRNA in the absence of chemical substance (yeast gene YGL068W): 1.0
- The level of expressed mRNA in the presence of chemical substance/The level of expressed mRNA in the absence of chemical substance (yeast gene YGL187C): 0.7
- The level of expressed mRNA in the presence of chemical substance/The level of expressed mRNA in the absence of chemical substance (yeast gene YGL191W): 1.1
- The level of expressed mRNA in the presence of chemical substance/The level of expressed mRNA in the absence of chemical substance (yeast gene YGR029W): 1.0
- The level of expressed mRNA in the presence of chemical substance/The level of expressed mRNA in the absence of chemical substance (yeast gene YGR112W): 1.1
- The level of expressed mRNA in the presence of chemical substance/The level of expressed mRNA in the absence of chemical substance (yeast gene YGR220C): 1.1
- The level of expressed mRNA in the presence of chemical substance/The level of expressed mRNA in the absence of chemical substance (yeast gene YHR037W): 1.1
- The level of expressed mRNA in the presence of chemical substance/The level of expressed mRNA in the absence of chemical substance (yeast gene YIL070C): 0.7
- The level of expressed mRNA in the presence of chemical substance/The level of expressed mRNA in the absence of chemical substance (yeast gene YIL094C): 0.7
- The level of expressed mRNA in the presence of chemical substance/The level of expressed mRNA in the absence of chemical substance (yeast gene YJL096W): 0.7
- The level of expressed mRNA in the presence of chemical substance/The level of expressed mRNA in the absence of chemical substance (yeast gene YKL150W): 1.8
- The level of expressed mRNA in the presence of chemical substance/The level of expressed mRNA in the absence of chemical substance (yeast gene YKL194C): 1.1
- The level of expressed mRNA in the presence of chemical substance/The level of expressed mRNA in the absence of chemical substance (yeast gene YLL001W): 1.7
- The level of expressed mRNA in the presence of chemical substance/The level of expressed mRNA in the absence of chemical substance (yeast gene YMR023C): 1.1
- The level of expressed mRNA in the presence of chemical substance/The level of expressed mRNA in the absence of chemical substance (yeast gene YMR203W): 1.1
- The level of expressed mRNA in the presence of chemical substance/The level of expressed mRNA in the absence of chemical substance (yeast gene YMR267W): 0.7
- The level of expressed mRNA in the presence of chemical substance/The level of expressed mRNA in the absence of chemical substance (yeast gene YNL284C): 1.0
- The level of expressed mRNA in the presence of chemical substance/The level of expressed mRNA in the absence of chemical substance (yeast gene YOR187W): 0.7
- The level of expressed mRNA in the presence of chemical substance/The level of expressed mRNA in the absence of chemical substance (yeast gene YOR316C): 1.6
- The level of expressed mRNA in the presence of chemical substance/The level of expressed mRNA in the absence of chemical substance (yeast gene YPL215W): 0.7
- The level of expressed mRNA in the presence of chemical substance/The level of expressed mRNA in the absence of chemical substance (yeast gene YPR134W): 1.1
